Test results as given in paper PMC9285882, “A mass spectrometry‐based non‐radioactive differential radial capillary action of ligand assay (DRaCALA) to assess ligand binding to proteins” (Journal of Mass Spectrometry, 2022).

Key:
Type in all cases: biochemical
YciRFec101 = target: T1, YciRFec101 (Escherichia coli, UniProt P77334); experiment: DRaCALA, MALDI-TOF MS and […] read-out; conditions: cell lysate; 10 mM Tris pH 8.0, 100 mM NaCl, 5 mM MgCl2 (MALDI) or MgSO4 (32P); room temperature; labelled compound in 32P assay
T1 construct: gene pdeR; full-length GGDEF/EAL protein, cloned in pBAD30, expressed in E. coli Top10, whole cell lysate
T1 sequence (P77334 whole entry): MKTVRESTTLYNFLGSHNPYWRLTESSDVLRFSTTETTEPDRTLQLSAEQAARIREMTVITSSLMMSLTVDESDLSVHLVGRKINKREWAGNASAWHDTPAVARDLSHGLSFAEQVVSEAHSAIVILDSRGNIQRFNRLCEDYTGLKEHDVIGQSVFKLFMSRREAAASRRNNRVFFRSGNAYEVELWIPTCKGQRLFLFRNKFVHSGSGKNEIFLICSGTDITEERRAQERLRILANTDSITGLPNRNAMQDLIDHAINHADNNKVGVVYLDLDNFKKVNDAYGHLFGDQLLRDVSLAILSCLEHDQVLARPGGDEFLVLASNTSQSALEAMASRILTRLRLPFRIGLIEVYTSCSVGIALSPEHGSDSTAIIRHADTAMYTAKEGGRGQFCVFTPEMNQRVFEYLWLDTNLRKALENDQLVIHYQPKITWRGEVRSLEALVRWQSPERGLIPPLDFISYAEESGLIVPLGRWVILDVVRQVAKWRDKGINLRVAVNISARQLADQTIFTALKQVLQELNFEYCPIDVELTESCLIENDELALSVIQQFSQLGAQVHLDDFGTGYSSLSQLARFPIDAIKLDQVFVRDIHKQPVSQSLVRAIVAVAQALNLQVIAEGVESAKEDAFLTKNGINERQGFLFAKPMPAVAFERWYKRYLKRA

BcsE = BcsE (Escherichia coli, UniProt P37657); experiment: DRaCALA, MALDI-TOF MS read-out; conditions: cell lysate; 10 mM Tris pH 8.0, 100 mM NaCl, 5 mM MgCl2; room temperature
Chain of BcsE (P37657 whole entry): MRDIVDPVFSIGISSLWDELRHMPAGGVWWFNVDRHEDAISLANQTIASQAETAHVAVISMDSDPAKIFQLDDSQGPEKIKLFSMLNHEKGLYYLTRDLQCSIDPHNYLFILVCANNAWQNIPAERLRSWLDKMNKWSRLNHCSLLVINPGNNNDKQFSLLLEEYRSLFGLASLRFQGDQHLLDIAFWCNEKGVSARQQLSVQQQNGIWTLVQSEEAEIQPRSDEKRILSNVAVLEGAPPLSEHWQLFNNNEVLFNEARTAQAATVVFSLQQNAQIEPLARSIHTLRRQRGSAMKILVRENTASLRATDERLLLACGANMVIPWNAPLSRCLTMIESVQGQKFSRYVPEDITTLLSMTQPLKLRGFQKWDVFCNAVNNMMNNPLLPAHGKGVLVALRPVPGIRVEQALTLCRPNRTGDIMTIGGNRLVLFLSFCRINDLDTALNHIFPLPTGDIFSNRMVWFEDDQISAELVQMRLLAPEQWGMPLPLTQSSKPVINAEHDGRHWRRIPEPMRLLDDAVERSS

YcgR = target: T2, YcgR (Escherichia coli, UniProt P76010); experiment: DRaCALA, MALDI-TOF MS read-out; conditions: cell lysate; 10 mM Tris pH 8.0, 100 mM NaCl, 5 mM MgCl2; room temperature
T2 construct: cloned in pBAD30, expressed in E. coli Top10, whole cell lysate
T2 sequence (P76010 1-244): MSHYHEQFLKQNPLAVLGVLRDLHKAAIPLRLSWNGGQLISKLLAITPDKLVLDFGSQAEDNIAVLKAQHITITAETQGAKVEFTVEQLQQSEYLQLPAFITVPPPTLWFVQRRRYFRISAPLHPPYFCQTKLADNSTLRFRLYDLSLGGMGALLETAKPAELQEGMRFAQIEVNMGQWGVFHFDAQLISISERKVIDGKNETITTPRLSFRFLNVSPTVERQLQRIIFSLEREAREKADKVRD

Nc1nc2c(ncn2[C@@H]2O[C@@H]3COP(=O)(O)O[C@H]4[C@@H](O)[C@H](n5cnc6c(=O)[nH]c(N)nc65)O[C@@H]4COP(=O)(O)O[C@H]3[C@H]2O)c(=O)[nH]1 [cyclic di-GMP]
DRaCALA, MALDI-TOF MS and 32P read-out (YciRFec101): YciRFec101 showed increased binding to c‐di‐GMP, while mut1 and mut2 were near vector control
DRaCALA, MALDI-TOF MS read-out (BcsE): cell lysates expressing the cyclic di‐GMP receptors and incubated with cyclic di‐GMP showed higher counts
DRaCALA, MALDI-TOF MS read-out (YcgR): cell lysates expressing the cyclic di‐GMP receptors and incubated with cyclic di‐GMP showed higher counts
